Laboratory results reported in patent US10905739B2, “Peptidomimetic macrocycles and formulations thereof” (AILERON THERAPEUTICS, INC., priority 2014, dated 2021).
In brackets after ≈: the same amount, converted by molar mass. Where two headings read alike, the source gives them in different places. Bridge positions count the residues as written; N and C are the ends. Square brackets hold non-standard residues; d marks the D form. Peptide text beside a SMILES is read from it. dPhe(4-CF3) = N[C@H](Cc1ccc(C(F)(F)F)cc1)C(=O)O; Phe(4-F) = N[C@@H](Cc1ccc(F)cc1)C(=O)O; R8 = C=CCCCCCC[C@@](C)(N)C(=O)O; S8 = C=CCCCCCC[C@](C)(N)C(=O)O; R5 = C=CCCC[C@@](C)(N)C(=O)O; hLeu = CC(C)CC[C@H](N)C(=O)O; S5 = C=CCCC[C@](C)(N)C(=O)O; Nle = CCCC[C@H](N)C(=O)O; Aib = CC(C)(N)C(=O)O

Tests used:
[1] = target: MDM2 (Homo sapiens, UniProt Q00987); assay: MDM2 binding IC50/Ki (in vitro displacement, fluorescence polarization)
MDM2, sequence (Q00987 whole entry): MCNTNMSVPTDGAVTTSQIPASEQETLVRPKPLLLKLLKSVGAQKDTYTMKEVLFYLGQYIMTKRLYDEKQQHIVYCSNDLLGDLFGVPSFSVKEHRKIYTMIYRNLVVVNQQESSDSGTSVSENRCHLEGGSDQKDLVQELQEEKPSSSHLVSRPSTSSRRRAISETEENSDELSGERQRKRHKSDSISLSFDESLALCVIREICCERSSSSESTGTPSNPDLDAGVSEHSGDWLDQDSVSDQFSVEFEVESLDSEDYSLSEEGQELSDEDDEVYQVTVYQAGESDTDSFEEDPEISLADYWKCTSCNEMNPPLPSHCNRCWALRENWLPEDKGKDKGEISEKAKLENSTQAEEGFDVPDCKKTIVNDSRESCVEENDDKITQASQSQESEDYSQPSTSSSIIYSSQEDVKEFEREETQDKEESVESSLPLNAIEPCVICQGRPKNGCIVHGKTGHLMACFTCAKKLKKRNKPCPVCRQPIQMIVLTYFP

[2] = Aqueous solubility (turbidity of solution); assay type: physicochemical
Description: In some embodiments, the peptidomimetic macrocycle or pharmaceutically acceptable salt thereof is not precipitated in the formulation. In some embodiments, an aqueous solubility of the peptidomimetic macrocycle is determined by evaluating the turbidity of a solution comprising the peptidomimetic macrocycle. In some embodiments, the peptidomimetic macrocycle or pharmaceutically acceptable salt thereof has an amphipathicity that falls in a range that is optimal for cell permeability.
In some embodiments, a peptidomimetic macrocycle with enhanced cell penetrability can be prepared based on solubility of the polypeptide, for example if the prepared peptidomimetic macrocycle is determined to be soluble based on visual examination of the turbidity of a solution of the polypeptide.

[3] = tested on: SJSA-1 cells; assay: SJSA-1 sarcoma cell killing / cell viability; assay type: cell-based; conditions: 10% serum
[4] = tested on: Influenza A Virus H1N1 California/07/2009; conditions: Virus California/07/2009
[5] = tested on: Raji Cell; conditions: read-out: Raji Cell Viability EC50; 5% serum, 48 hr
Description: The efficacy of certain peptidomimetic macrocycles is determined, for example, in cell-based killing assays using a variety of tumorigenic and non-tumorigenic cell lines and primary cells derived from human or mouse cell populations. […] Several standard assays that measure cell viability are commercially available and are optionally used to assess the efficacy of the peptidomimetic macrocycles. In addition, assays that measure Annexin V and caspase activation are optionally used to assess whether the peptidomimetic macrocycles kill cells by activating the apoptotic machinery. For example, the Cell Titer-glo assay is used which determines cell viability as a function of intracellular ATP concentration.

[6] = target: MCL-1 (Homo sapiens, UniProt Q07820); assay: biochemical
MCL-1, sequence (Q07820 whole entry): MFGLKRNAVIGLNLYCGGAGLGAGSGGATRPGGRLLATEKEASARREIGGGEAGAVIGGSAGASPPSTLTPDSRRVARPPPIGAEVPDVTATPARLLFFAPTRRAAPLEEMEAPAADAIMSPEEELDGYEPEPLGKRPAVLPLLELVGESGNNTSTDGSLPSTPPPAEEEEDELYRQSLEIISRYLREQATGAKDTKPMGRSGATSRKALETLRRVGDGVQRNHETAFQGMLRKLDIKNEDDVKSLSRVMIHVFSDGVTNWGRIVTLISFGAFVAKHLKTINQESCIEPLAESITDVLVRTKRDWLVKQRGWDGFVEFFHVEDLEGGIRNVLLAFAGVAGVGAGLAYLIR
Source text: To assess the binding and affinity of compounds that antagonize the interaction between a peptide and an acceptor protein, a fluorescence polarization assay (FPA) utilizing a fluoresceinated peptidomimetic macrocycle derived from a peptidomimetic precursor sequence is used, for example. The FPA technique measures the molecular orientation and mobility using polarized light and fluorescent tracer. […] A compound that antagonizes the interaction between the fluoresceinated peptidomimetic macrocycle and an acceptor protein will be detected in a competitive binding FPA experiment.
Antagonist binding activity is measured, for example, by fluorescence polarization on a luminescence spectrophotometer (e.g. Perkin-Elmer LS50B). Kd values can be determined by nonlinear regression analysis using, for example, Graphpad Prism software (GraphPad Software, Inc., San Diego, Calif.).

[7] = target: BCL-XL (Homo sapiens, UniProt Q07817); assay: BCL-XL binding IC50
BCL-XL, sequence (Q07817 whole entry): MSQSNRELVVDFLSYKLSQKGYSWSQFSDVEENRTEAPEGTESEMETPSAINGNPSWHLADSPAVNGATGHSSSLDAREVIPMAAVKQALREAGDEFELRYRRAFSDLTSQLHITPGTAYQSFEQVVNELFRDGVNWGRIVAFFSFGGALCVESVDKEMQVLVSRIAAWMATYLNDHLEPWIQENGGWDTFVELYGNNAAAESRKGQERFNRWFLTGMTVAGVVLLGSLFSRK
Source text: In one aspect, the present invention provides novel peptidomimetic macrocycles that are useful in competitive binding assays to identify agents which bind to the natural ligand(s) of the proteins or peptides upon which the peptidomimetic macrocycles are modeled. For example, in the BH3/BCL-XL anti-apoptotic system labeled peptidomimetic macrocycles based on BH3 can be used in a BCL-XL binding assay along with small molecules that competitively bind to BCL-XL. Competitive binding studies allow for rapid in vitro evaluation and determination of drug candidates specific for the BH3/BCL-XL system. The invention further provides for the generation of antibodies against the peptidomimetic macrocycles. In some embodiments, these antibodies specifically bind both the peptidomimetic macrocycle and the BH3 peptidomimetic precursors upon which the peptidomimetic macrocycles are derived. Such antibodies, for example, disrupt the BH3/BCL-XL systems, respectively.

Compound `CCCC[C@H](NC(=O)[C@H](C)NC(=O)[C@H](C)NC(=O)[C@]1(C)CCCC=CCCCCCC[C@@](C)(NC(=O)[C@H](Cc2ccccc2)NC(=O)[C@@H](NC(=O)[C@H](CC(C)C)NC(C)=O)[C@@H](C)O)C(=O)N[C@@H](C)C(=O)N[C@@H](Cc2ccc(O)cc2)C(=O)N[C@@H](Cc2c[nH]c3ccccc23)C(=O)N[C@@H](C)C(=O)N[C@@H](CCC(N)=O)C(=O)N[C@@H](CC(C)C)C(=O)N1)C(=O)N[C@@H](C)C(N)=O` [SP68] has an IC50 [1] of 29 nM, a solubility ([2]; aqueous solution, read-out: Solubility) of 3000 µg/mL (≈ 1690 µM) and an EC50 ([3]; 72 hr (Table 1d)) of 1120 nM.
For `CC(=O)N[C@@H](CC(C)C)C(=O)N[C@H](C(=O)N[C@@H](Cc1ccccc1)C(=O)NC1(C)CCCCCCC=CCCCC(C)(C(=O)N[C@@H](C)C(=O)N[C@@H](C)C(=O)N[C@@H](C)C(=O)N[C@@H](C)C(=O)N[C@@H](C)C(=O)N[C@@H](C)C(=O)N[C@H](C)C(N)=O)NC(=O)[C@H](CC(C)C)NC(=O)[C@H](CCC(N)=O)NC(=O)[C@H](C)NC(=O)[C@H](Cc2c[nH]c3ccccc23)NC(=O)[C@H](Cc2ccc(O)cc2)NC(=O)[C@H](C)NC1=O)[C@@H](C)O` (stereo partly drawn) [SP317], the solubility ([2]; read-out: Solubility) was 5000 µg/mL (≈ 2570 µM).
For `CC(=O)N[C@@H](CC(C)C)C(=O)N[C@H](C(=O)N[C@@H](Cc1ccccc1)C(=O)N[C@]1(C)CCCCCCC=CCCC[C@@](C)(C(=O)N[C@@H](C)C(N)=O)NC(=O)[C@H](CC(C)C)NC(=O)[C@H](CCC(N)=O)NC(=O)[C@H](C)NC(=O)[C@H](Cc2c[nH]c3ccccc23)NC(=O)[C@H](Cc2ccc(O)cc2)NC(=O)[C@H](C)NC1=O)[C@@H](C)O` [SP590, Ac-LTF$r8AYWAQL$A-NH2] (Ac-LTF[R8]AYWAQL[S5]A-NH2; staple 4-11), the solubility [2] was ≤ 1000 µg/mL and the EC50 ([3]; 72 hr (Table 1d)) was 6000 nM.
Work on `CC(=O)N[C@@H](C(=O)N[C@H](C)C(=O)N[C@H](Cc1c[nH]c2ccccc12)C(=O)N[C@H](Cc1ccc(O)cc1)C(=O)N[C@@]1(C)CCCCCCC=CCCC[C@](C)(C(=O)N[C@H](C)C(N)=O)NC(=O)[C@@H](CC(C)C)NC(=O)[C@@H](CC(C)C)NC(=O)[C@@H](CCCCN)NC(=O)[C@@H](CCC(=O)O)NC(=O)[C@@H](Cc2ccc(C(F)(F)F)cc2)NC(=O)[C@@H](CC(N)=O)NC1=O)[C@H](C)O` [SP757, Ac-tawy$s8nf4CF3ekll$r5a-NH2] (Ac-[dT][dA][dW][dY][S8][dN][dPhe(4-CF3)][dE][dK][dL][dL][R5][dA]-NH2; staple 5-12) yielded an EC50 ([3]; 72 hr (Table 1f)) of 1500 nM.
For `CC(=O)N[C@@H](C(=O)N[C@H](C)C(=O)N[C@H](Cc1c[nH]c2ccccc12)C(=O)N[C@H](Cc1ccc(O)cc1)C(=O)N[C@H](C)C(=O)N[C@H](CC(N)=O)C(=O)N[C@H](Cc1ccccc1)C(=O)N[C@H](CCC(=O)O)C(=O)N[C@H](CCCCN)C(=O)N[C@H](CC(C)C)C(=O)N[C@H](CC(C)C)C(=O)N[C@H](CCCNC(=N)N)C(N)=O)[C@H](C)O` [SP778, Ac-tawyanfekllr-NH2, reference compound] (Ac-[dT][dA][dW][dY][dA][dN][dF][dE][dK][dL][dL][dR]-NH2), the EC50 ([3]; 72 hr (Table 1f)) was > 30000 nM.
`CCCC[C@H](NC(C)=O)C(=O)N[C@@H](CC(=O)O)C(=O)N[C@H](C(=O)N[C@@H](CC(N)=O)C(=O)N[C@@]1(C)CCCC=CCCC[C@@](C)(C(=O)N[C@@H](CC(C)C)C(=O)N[C@@H](C)C(=O)N[C@H](C(=O)NC(C)(C)C(=O)N[C@@H](C)C(=O)N[C@@H](CCC(N)=O)C(N)=O)C(C)C)NC(=O)[C@H](CC(C)C)NC(=O)[C@H](CC(C)C)NC(=O)[C@H]([C@@H](C)O)NC1=O)C(C)C` [SP786] (Ac-[Nle]DVN[S5]TLL[S5]LAV[Aib]AQ-NH2; staple 5-9; C-terminus assumed) gave an EC50 [4] of 23 µM.
Work on `CCCC[C@H](NC(C)=O)C(=O)N[C@@H](CC(=O)O)C(=O)N[C@H](C(=O)N[C@@H](CC(N)=O)C(=O)N[C@]1(C)CCCCCCC=CCCC[C@@](C)(C(=O)N[C@@H](C)C(=O)N[C@@H](C)C(=O)N[C@@H](CCC(N)=O)C(N)=O)NC(=O)[C@H](C)NC(=O)[C@H](CC(C)C)NC(=O)[C@H](Cc2ccccc2)NC(=O)[C@H](CC(C)C)NC(=O)[C@H](CC(C)C)NC(=O)[C@H]([C@@H](C)O)NC1=O)C(C)C` [SP798] (Ac-[Nle]DVN[R8]TLLFLA[S5]AAQ-NH2; staple 5-12) yielded an EC50 [4] of 4.5 µM.
With `CC[C@H](C)[C@H](NC(C)=O)C(=O)N[C@@H](Cc1c[nH]c2ccccc12)C(=O)N[C@H](C(=O)N[C@@H](C)C(=O)N[C@@H](CCC(N)=O)C(=O)N[C@@H](C)C(=O)N[C@@H](CC(C)C)C(=O)N[C@@H](CCCNC(=N)N)C(=O)N[C@]1(C)CCCCCCC=CCCC[C@@](C)(C(=O)N[C@@H](Cc2ccc(O)cc2)C(=O)N[C@@H](Cc2ccc(O)cc2)C(=O)N[C@@H](C)C(=O)N[C@@H](CCCNC(=N)N)C(=O)N[C@@H](CCCNC(=N)N)C(N)=O)NC(=O)[C@H](CC(N)=O)NC(=O)[C@H](Cc2ccccc2)NC(=O)[C@H](CCC(=O)O)NC(=O)[C@H](CC(=O)O)NC(=O)CNC(=O)[C@H]([C@@H](C)CC)NC1=O)[C@@H](C)CC` [SP809] (Ac-IWIAQALR[R8]IGDEFN[S5]YYARR-NH2; staple 9-16) the EC50 [5] was > 30 µM, the IC50 [6] was 10.6 nM and the IC50 [7] was 3.9 nM.
For `CC[C@H](C)[C@H](NC(C)=O)C(=O)N[C@@H](Cc1c[nH]c2ccccc12)C(=O)N[C@H](C(=O)N[C@@H](C)C(=O)N[C@@H](CCC(N)=O)C(=O)N[C@@H](CCC(=O)O)C(=O)N[C@@H](CC(C)C)C(=O)N[C@@H](CCCNC(=N)N)C(=O)N[C@]1(C)CCCCCCC=CCCC[C@@](C)(C(=O)N[C@@H](Cc2ccc(O)cc2)C(=O)N[C@@H](Cc2ccc(O)cc2)C(=O)N[C@@H](C)C(=O)N[C@@H](CCCNC(=N)N)C(=O)N[C@@H](CCCNC(=N)N)C(N)=O)NC(=O)[C@H](CC(N)=O)NC(=O)[C@H](Cc2ccccc2)NC(=O)[C@H](CCC(=O)O)NC(=O)[C@H](CC(=O)O)NC(=O)CNC(=O)[C@H]([C@@H](C)CC)NC1=O)[C@@H](C)CC` [SP810], the EC50 [5] was > 30 µM and the IC50 [7] was 9.2 nM.
`CC[C@H](C)[C@H](NC(C)=O)C(=O)N[C@@H](Cc1c[nH]c2ccccc12)C(=O)N[C@H](C(=O)N[C@@H](C)C(=O)N[C@@H](CCC(N)=O)C(=O)N[C@@H](C)C(=O)N[C@@H](CC(C)C)C(=O)N[C@@H](CCCNC(=N)N)C(=O)N[C@]1(C)CCCCCCC=CCCC[C@@](C)(C(=O)N[C@@H](Cc2ccc(O)cc2)C(=O)N[C@@H](Cc2ccc(O)cc2)C(=O)N[C@@H](C)C(N)=O)NC(=O)[C@H](CC(N)=O)NC(=O)[C@H](Cc2ccccc2)NC(=O)[C@H](C)NC(=O)[C@H](CC(=O)O)NC(=O)CNC(=O)[C@H]([C@@H](C)CC)NC1=O)[C@@H](C)CC` [SP815] (Ac-IWIAQALR[R8]IGDAFN[S5]YYA-NH2; staple 9-16) gave an EC50 [5] of 6.6 µM, an IC50 [6] of 8.4 nM and an IC50 [7] of 22.4 nM.
Compound `CC[C@H](C)[C@H](NC(C)=O)C(=O)N[C@@H](Cc1c[nH]c2ccccc12)C(=O)N[C@H](C(=O)N[C@@H](C)C(=O)N[C@@H](CCC(N)=O)C(=O)N[C@@H](C)C(=O)N[C@@H](CC(C)C)C(=O)N[C@@H](CCCNC(=N)N)C(=O)N[C@]1(C)CCCCCCC=CCCC[C@@](C)(C(=O)N[C@@H](Cc2ccc(O)cc2)C(=O)N[C@@H](Cc2ccc(F)cc2)C(=O)N[C@@H](C)C(N)=O)NC(=O)[C@H](CC(N)=O)NC(=O)[C@H](Cc2ccccc2)NC(=O)[C@H](C)NC(=O)[C@H](CC(=O)O)NC(=O)CNC(=O)[C@H](CCC(C)C)NC1=O)[C@@H](C)CC` [SP962] (Ac-IWIAQALR[R8][hLeu]GDAFN[S5]Y[Phe(4-F)]A-NH2; staple 9-16) has an EC50 [5] of 0.7 µM, an IC50 [6] of 27 nM and an IC50 [7] of 13 nM.
